Test systems include RXF-631 renal; DLD-1 colon; DU-145 prostate.
What all share (assay): DTP human tumour cell line panel, 48 h

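Growth conditions: 96-well plates. Treatment: test compound, 48 hours, 5 concentrations. Analysis: linear interpolation between bracketing concentrations; unreached endpoints set to highest concentration. The concentration for full growth arrest is given as TGI.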 Some results are limits rather than exact numbers.

Broadly, the TGI is the concentration giving total growth inhibition.

For the compound `O=[N+]([O-])c1ccc(-c2ccc(-c3csc(Nc4ccccn4)n3)o2)cc1`, the TGI in the test on RXF-631 renal and in the test on DLD-1 colon was greater than 100 µM in each case.

For `CCC(C(=O)c1ccc(OC)c(OC)c1)N(C(=O)C(F)(F)F)C(C)c1ccccc1` (stereo not drawn), in the test on DU-145 prostate, the TGI is greater than 100 µM.
